Measurements published in US6893829B2, “Human leukocyte 12-lipoxygenase and its role in the pathogenesis of disease states” (City of Hope, priority 1992, dated 2005).

Columns and labels:
[1] = system: VEGF in vascular smooth muscle cells (VSMC); assay: VEGF protein, mRNA and secretion in VSMC (Western, Northern, EIA); type: cell-based, Porcine and human
Protocol: In addition to the work reflected in FIGS. 8-10, it has now been discovered that AII, 12-HETE and hyperglycemia (HG) increase VEGF production in vascular smooth muscle cells (VSMC). Porcine and human VSMC were cultured for at least two passages under normal glucose (NG, 5.5 mM) or under HG conditions. VEGF protein expression was determined by Western blotting and VEGF mRNA by Northern blots. HG alone increased the level of VEGF mRNA (2.8-fold) and protein (3.2-fold). […] In addition, HG increased the secretion of VEGF into the medium as measured by a specific EIA (56.2±4 ng/ml NG vs 73±5 HG, p<0.02).

[2] = system: ERK; assay: ERK activity in CHO-AT1a cells; type: cell-based, Chinese hamster; details: AII 10^−7M
Protocol: ERK activity was evaluated by the substrate-SDS-polyacrylamide gel method described in Anal. Biochem., 183:139-143 (1989). Confluent cells in […] were made quiescent in serum-free medium and then treated with agonists for various time periods. The cells were then lysed in lysis buffer (1% NP40, 1% sodium deoxycholate, 0.1% SDS, 100 mM NaCl, 50 mM Tris, 10 mM EDTA, 1 mM EGTA, aprotinin, […], 0.1 mM PMSF and 1 mM sodium orthovanadate, pH 7.4). Lysates were centrifuged to pellet nuclei and the cell extracts ([…]) were subjected to electrophoresis on SDS-polyacrylamide gels (10%) containing myelin basic protein (0.5 mg/ml) as an ERK substrate. The SDS was then washed, followed by denaturation, renaturation and protein phosphorylation on the gel with [^32P] ATP.
It has been discovered that the administration of AII results in biphasic activation of MAP kinase (all of the MAP kinase experiments were conducted in CHO-AT1a cells—AII receptor AT1a cDNA transfected Chinese hamster ovary cells).

[3] = system: 12-LO activity in HSMC; assay: 12-HETE release and cell-associated 12-HETE in HSMC (HPLC/RIA); type: cell-based, human
Protocol: FIG. 3A illustrates the effect of AII on 12-HETE release by HSMC. HSMC were grown to confluency. Serum was removed and cells were incubated in media 199 containing 0.4% fetal bovine serum (FBS) and 0.2% BSA for 18 hours. Cells were then washed with DME media and incubated for 20 minutes in DME media containing 0.2% BSA. AII was added to the cells for five and ten minutes at the concentrations of 10^−9 and 10^−8 mol/L. Media were collected for HETE assay. • *p<0.05 vs control n=4
FIG. 3B illustrates the effect of AII on cell-associated 12-HETE levels in HSMC. After collecting supernatants, cells were washed with ice-cold PBS and harvested by scraping for the assay of cell-associated HETEs. • *p<0.02 vs control n=4
HSMC and HAEC monolayers were washed twice with ice-cold PBS and then processed for RNA extraction or western analysis as described below. For hydroxyeicosatetraenoic acid (HETE) assay, approximately 24 hours prior to an experiment, the medium was replaced with medium 199 containing 0.4% FBS and 0.2% BSA.
These assays were performed using previously published methods (10,11). Briefly, 12- and 15-HETE are extracted from supernatants and cells on C18 mini columns (Analytichem International, CA) and measured using our validated reverse phase gradient HPLC and (RIA) methods.
Another major aspect of this invention is the discovery that AII increases the activity and expression of 12-LO mRNA and protein in HSMC.

[4] = AII 10^−7M, 4 hours, cells cultured in HG

Angiotensin II (DRVYIHPF; Angiotensin-2; UniProt P01019 25-32, looked up) [AII, peptide hormone, added to cells as stimulus]
increase in VEGF secretion (EIA) [1]: 1.24 fold
VEGF mRNA expression increase [1, 4]: 1.4 fold
VEGF protein expression increase [1, 4]: 2.2 fold
stimulation of ERK activity, later peak ([2]; 3-4.5 hours): 1.5-3 fold
stimulation of ERK activity, first peak ([2]; 5 minutes): 2-6 fold
release of 12-HETE ([3]; AII 10^−8M, 5 minute incubation, serum free media, control 599±105): 1467±277 pg per mg of protein
release of 12-HETE ([3]; AII 10^−8 mol/L, ten minute incubation): significantly simulated the release of 12-HETE
release of 12-HETE ([3]; AII 10^−9 mol/L, 5 minute incubation, serum free media, control 599±105): 1296±262 pg per mg of protein
cell-associated 12-HETE levels ([3]; HSMC, FIG. 3B): significantly also increased
